In one data set the target is T1, ALDH1L1 (Homo sapiens, UniProt O75891).
T1 construct: made in house; host or cells: BL21-DE3 E. coli
In words: Recombinant enzyme activity assay. Format: biochemical. Conditions: selectivity profiling.

The target in another data set is T2, ALDH1L2 (Homo sapiens, UniProt Q3SY69).
T2 construct: made in house; host or cells: BL21-DE3 E. coli
In words: Recombinant enzyme activity assay. Type of data set: biochemical. Conditions: selectivity profiling.

For another data set, the target named is T3, ALDH3A1 (Homo sapiens, UniProt P30838).
T3 construct: made in house; host or cells: BL21-DE3 E. coli
In words: Recombinant enzyme activity assay. Conditions: selectivity profiling. Format: biochemical.

The next data set relates to ALDH1A3 mRNA. In words: RT-qPCR of ALDH1A3 mRNA after treatment. Conditions: multiple cell lines. Type of data set: cell-based, human.
Another data set deals with NPTN. The data set is described as follows: Cellular thermal shift assay (CETSA) in A375 cells. Type of data set: cell-based, human. As to conditions: 100 nM, 1h at 37°C. On the procedure:
CETSA was performed according to protocols described before.[85] Briefly, 6 × 10cm dishes of A375 cells were collected and treated with 100 nM MBE1 or 0.1% DMSO for 1h at 37°C. Afterward, cells were pelleted through centrifugation at 300g for 5 min. Cells were then washed with ice-cold PBS and resuspended in 800 μL of PBS. Cell suspension was aliquoted to 7xPCR tubes with 100 μL each and subjected to thermal denaturation at 46.3, 48.6, 52.2, 56.5, 60.1, 62.5, 64.0°C for 3 min. The resulting sample was snap frozen in liquid nitrogen followed by incubation at room temperature until fully thawed. This procedure was performed twice followed by brief vortexing and mixing to release soluble proteins from the cells. Samples were then transferred to 1.5 mL Eppendorf tubes and centrifuged at 20,000g for 20 min at 4°C, 90 μL of the resulting supernatant was collected into another new 1.5 mL Eppendorf tube and subjected to protein analysis by western blot (WB). NPTN (proteintech #28022-1-AP) and ALDH1A3 (abcam #ab129815) were used to detect target proteins while GelCode Blue Stain Reagent (Thermofisher scientific #24590) was used to stain for total proteins loaded in the WB analysis.

The target of a further data set is T4, RHPN2 (Homo sapiens, UniProt Q8IUC4).
T4 construct: Treated A375 cells were harvested from 10 × 15 cm plates; endogenous in cells; host or cells: A375 melanoma cells
The data set is described as follows: Thermal proteome profiling (TPP) in A375 cells. Format: cell-based. As to conditions: RHPN2, 100 nM.

The next data set concerns Ca2+-L. The data set is described as follows: Off-target profiling panel. As to conditions: 10 μM. Format: binding.
The next data set concerns the target M1 (Homo sapiens, UniProt P11229). The data set is described as follows: biochemical. Type of data set: binding. Conditions: read-out: Inhibition by MBE1 at 10 μM (%).
In the next data set the target is op-kappa (Homo sapiens, UniProt P41145). In words: Off-target profiling panel. Type of data set: binding. Conditions: read-out: Inhibition by MBE1 at 10 μM (%).
The next data set addresses op-mu (Homo sapiens, UniProt P35372). The data set is described as follows: Off-target profiling panel. Conditions: read-out: Inhibition by MBE1 at 10 μM (%). Format: binding.
The target in another data set is PDE4D2 (Homo sapiens, UniProt Q08499). The data set is described as follows: Off-target profiling panel. Conditions: read-out: Inhibition by MBE1 at 10 μM (%). Format: biochemical.
The target of a further data set is hKCNQ1 (Homo sapiens, UniProt P51787). The data set is described as follows: Off-target profiling panel. Conditions: read-out: Inhibition by MBE1 at 10 μM (%). Type of data set: cell-based.
The next data set concerns HaCaT cells. In words: Dose-titration cytotoxicity analysis. Conditions: 24 hour incubation, highest tested dose 10 μM.
The next data set has as its system T3-MCA tumors. The data set is described as follows: Tumor infiltrating immune cell profiling of T3-MCA tumors. As to conditions: oral gavage, 7 days of treatment.

T4 sequence (Q8IUC4 whole entry): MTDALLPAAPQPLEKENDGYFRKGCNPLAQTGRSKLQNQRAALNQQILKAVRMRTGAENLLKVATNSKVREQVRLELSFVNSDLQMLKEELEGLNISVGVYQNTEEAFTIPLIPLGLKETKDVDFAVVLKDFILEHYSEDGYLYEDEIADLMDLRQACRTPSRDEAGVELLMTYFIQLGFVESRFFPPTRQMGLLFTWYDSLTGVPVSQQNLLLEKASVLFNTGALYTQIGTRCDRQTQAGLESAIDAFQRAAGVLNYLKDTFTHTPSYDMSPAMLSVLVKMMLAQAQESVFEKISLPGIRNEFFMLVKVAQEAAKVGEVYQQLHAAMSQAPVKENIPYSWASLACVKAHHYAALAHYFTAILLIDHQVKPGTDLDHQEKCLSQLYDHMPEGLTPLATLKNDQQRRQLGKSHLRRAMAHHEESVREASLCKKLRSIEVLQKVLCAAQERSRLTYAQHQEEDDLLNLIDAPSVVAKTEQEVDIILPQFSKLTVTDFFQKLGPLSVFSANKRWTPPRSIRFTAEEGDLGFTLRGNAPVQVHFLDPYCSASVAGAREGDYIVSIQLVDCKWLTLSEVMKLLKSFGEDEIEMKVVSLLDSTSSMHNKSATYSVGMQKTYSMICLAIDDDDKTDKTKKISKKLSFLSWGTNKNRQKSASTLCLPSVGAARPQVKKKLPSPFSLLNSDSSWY
T2 sequence (Q3SY69 whole entry): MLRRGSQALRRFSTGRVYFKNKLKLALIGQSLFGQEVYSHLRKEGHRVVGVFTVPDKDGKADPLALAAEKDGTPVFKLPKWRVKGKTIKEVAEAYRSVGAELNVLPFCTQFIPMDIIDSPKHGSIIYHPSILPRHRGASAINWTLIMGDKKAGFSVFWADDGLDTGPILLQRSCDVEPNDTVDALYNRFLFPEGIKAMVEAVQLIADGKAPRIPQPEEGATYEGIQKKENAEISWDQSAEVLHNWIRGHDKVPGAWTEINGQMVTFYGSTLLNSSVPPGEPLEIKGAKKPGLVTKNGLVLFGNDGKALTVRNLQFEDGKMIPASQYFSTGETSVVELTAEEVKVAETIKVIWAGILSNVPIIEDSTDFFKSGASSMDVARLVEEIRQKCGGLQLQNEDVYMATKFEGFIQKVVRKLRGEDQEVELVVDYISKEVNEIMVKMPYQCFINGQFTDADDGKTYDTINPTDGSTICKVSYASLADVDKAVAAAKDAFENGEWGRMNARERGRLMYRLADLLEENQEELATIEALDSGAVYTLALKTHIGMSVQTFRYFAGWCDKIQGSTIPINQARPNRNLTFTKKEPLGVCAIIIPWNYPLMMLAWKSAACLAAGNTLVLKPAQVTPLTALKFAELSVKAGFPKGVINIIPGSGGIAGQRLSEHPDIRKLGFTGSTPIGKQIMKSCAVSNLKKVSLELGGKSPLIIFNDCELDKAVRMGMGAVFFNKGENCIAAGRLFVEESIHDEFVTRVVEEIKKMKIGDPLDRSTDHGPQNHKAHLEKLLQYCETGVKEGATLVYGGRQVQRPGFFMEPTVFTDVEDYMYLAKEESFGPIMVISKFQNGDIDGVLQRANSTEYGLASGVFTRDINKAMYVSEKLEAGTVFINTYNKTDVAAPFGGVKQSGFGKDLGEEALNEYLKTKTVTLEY
Sequence of op-kappa (P41145 whole entry): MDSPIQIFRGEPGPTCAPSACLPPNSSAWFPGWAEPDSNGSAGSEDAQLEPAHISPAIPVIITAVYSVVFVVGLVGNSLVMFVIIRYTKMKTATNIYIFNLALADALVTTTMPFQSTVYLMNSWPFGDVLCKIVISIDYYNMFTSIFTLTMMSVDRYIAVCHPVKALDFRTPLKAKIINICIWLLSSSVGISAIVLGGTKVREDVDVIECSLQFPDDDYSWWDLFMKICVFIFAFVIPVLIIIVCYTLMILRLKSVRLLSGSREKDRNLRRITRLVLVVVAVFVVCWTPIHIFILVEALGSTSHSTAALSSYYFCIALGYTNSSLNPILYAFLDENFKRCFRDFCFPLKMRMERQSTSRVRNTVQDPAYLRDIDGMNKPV
Sequence of PDE4D2 (Q08499 303-809 limits assumed): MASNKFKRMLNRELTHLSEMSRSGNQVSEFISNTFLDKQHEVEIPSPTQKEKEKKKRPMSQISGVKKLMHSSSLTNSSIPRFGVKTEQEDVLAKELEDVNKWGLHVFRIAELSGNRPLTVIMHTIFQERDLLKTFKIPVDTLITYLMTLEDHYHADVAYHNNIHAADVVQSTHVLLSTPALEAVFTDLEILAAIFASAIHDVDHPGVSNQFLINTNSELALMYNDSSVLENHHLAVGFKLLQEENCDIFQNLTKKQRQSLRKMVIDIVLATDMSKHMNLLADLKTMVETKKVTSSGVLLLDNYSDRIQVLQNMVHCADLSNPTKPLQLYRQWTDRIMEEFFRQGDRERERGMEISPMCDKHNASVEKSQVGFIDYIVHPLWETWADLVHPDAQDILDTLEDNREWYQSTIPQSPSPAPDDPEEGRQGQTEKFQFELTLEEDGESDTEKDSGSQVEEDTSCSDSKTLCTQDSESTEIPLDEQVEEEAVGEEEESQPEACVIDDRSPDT
Sequence of M1 (P11229 whole entry): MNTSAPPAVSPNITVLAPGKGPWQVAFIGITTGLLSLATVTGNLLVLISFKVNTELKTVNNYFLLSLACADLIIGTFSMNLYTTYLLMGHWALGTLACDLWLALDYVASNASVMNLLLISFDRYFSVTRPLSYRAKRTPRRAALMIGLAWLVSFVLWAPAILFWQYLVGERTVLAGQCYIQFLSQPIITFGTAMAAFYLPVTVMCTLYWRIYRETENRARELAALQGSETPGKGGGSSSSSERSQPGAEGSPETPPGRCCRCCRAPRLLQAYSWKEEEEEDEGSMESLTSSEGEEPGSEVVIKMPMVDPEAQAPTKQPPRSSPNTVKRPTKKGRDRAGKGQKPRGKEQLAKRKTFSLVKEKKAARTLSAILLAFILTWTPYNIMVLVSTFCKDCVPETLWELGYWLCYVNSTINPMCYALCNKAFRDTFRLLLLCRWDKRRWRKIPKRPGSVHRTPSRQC
Sequence of op-mu (P35372 whole entry): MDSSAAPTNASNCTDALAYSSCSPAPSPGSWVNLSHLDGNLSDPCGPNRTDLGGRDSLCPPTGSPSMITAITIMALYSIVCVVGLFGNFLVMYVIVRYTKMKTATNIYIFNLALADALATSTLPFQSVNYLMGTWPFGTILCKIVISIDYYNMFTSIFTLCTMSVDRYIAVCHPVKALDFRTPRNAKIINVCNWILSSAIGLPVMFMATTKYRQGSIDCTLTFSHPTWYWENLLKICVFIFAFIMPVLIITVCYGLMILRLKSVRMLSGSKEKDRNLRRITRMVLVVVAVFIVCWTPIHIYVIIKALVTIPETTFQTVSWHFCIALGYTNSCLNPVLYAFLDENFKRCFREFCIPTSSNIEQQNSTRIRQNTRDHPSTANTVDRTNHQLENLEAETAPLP
T1 sequence (O75891 whole entry): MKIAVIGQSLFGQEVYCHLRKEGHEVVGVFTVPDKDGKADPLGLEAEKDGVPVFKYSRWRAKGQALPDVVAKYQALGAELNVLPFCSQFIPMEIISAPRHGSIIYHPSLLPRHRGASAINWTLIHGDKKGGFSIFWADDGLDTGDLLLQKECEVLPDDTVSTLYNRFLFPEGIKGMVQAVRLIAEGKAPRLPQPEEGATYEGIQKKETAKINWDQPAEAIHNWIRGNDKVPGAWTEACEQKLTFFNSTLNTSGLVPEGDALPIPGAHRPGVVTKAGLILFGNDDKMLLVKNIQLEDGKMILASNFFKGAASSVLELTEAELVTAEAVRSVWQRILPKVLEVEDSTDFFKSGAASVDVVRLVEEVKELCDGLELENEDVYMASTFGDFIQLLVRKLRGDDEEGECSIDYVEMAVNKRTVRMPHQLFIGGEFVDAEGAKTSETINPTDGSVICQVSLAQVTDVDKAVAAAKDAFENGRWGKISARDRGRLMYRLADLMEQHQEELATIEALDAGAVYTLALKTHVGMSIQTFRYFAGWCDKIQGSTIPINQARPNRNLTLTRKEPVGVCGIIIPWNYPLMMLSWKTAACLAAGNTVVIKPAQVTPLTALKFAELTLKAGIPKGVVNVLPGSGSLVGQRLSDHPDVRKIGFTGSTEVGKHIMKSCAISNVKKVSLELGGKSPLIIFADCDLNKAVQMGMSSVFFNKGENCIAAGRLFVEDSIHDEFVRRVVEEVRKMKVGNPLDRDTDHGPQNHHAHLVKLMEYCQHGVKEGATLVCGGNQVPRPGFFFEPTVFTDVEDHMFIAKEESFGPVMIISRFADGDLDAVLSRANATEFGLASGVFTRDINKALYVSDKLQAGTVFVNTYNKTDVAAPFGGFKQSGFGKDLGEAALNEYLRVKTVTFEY
T3 sequence (P30838 whole entry): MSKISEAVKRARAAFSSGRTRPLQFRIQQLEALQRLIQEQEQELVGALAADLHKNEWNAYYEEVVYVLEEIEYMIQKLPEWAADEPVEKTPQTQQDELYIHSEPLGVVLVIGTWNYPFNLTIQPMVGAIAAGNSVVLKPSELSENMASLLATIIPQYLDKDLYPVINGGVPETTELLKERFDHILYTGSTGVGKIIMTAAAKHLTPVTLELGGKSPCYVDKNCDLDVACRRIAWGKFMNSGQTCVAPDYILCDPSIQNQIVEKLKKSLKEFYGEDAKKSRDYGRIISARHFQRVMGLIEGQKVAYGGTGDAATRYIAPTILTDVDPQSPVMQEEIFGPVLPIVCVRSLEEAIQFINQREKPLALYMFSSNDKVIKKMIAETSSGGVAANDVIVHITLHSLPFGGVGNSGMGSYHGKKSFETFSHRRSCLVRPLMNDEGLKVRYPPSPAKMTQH

As to `CCc1ccccc1C(=O)Nc1cc2c(cc1F)NC(=O)CC2` [MBE1.5, 2-ethyl-N-(7-fluoro-2-oxo-3,4-dihydro-1H-quinolin-6-yl)benzamide], at ALDH1L1, the “inhibitory activity against ALDH1L1 (in words)” value is reported as “no inhibition”. Moreover, the “inhibitory activity against ALDH1L2 (in words)” value on ALDH1L2 is “no inhibition”. Further, the “inhibitory activity against ALDH3A1 (in words)” value on ALDH3A1 was “no inhibition”. The “feedback effect on ALDH1A3 expression (in words)” value with ALDH1A3 mRNA is given as “no feedback effect”.
With `CCc1cnccc1C(=O)Nc1cc2c(cc1F)NC(=O)CC2` [MBE1, 3-ethyl-N-(7-fluoro-2-oxo-3,4-dihydro-1H-quinolin-6-yl)pyridine-4-carboxamide], in the data set on NPTN, the “stabilization of NPTN in CETSA (in words)” value is given as “not stabilized”. The “100nM MBE1 Tm” value at RHPN2 is 58.0062. For the same compound, on RHPN2, the “DMSO-100nM MBE1 TM” value is -9.514. Moreover, the “Inhibition by MBE1 at 10 μM (%)” value in the data set with Ca2+-L is −0.09%. The inhibition – broadly, the change of the read-out against control, counted positive when it falls – at 10 µM on M1 was -7.68%; on op-kappa it was -12.6%; at op-mu, 3.98%; at PDE4D2, 11.8%; on hKCNQ1, 11.9%. Besides, the “nonspecific cytotoxicity (in words)” value in the data set with HaCaT cells is “nontoxic”. Moreover, in the data set on T3-MCA tumors, the “CD4 T cells as percentage of total CD45^+ immune cells (in words)” value was “increased CD4 T cells”.

Source of the values: paper PMC12595434, “Development of retinoid nuclear receptor pathway antagonists through targeting aldehyde dehydrogenase 1A3” (iScience, 2025).
